In the supplement of paper PMC10307832:

Tests used:
Assay in all cases: relative viability (nuclei count vs DMSO), 5 days (fraction); higher = more cells survive
Idelalisib + Lapatinib = compound: CC[C@H](Nc1ncnc2[nH]cnc12)c1nc2cccc(F)c2c(=O)n1-c1ccccc1 [Idelalisib] + CS(=O)(=O)CCNCc1ccc(-c2ccc3ncnc(Nc4ccc(OCc5cccc(F)c5)c(Cl)c4)c3c2)o1 [Lapatinib] (partner 2 µM)
Summary of the method: (§1)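 Dosing by pin tool came one day after lung cancer cell lines were seeded in 1536-well plates, using either one drug or a fixed anchor-drug dose plus five library-drug doses (not always all listed) in √10 steps. After 5 days, nuclei were counted on 4× images. Relative viability is treated-well nuclei count divided by vehicle-well nuclei count, and values are medians of duplicate plates.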

Idelalisib + Alpelisib = compound: CC[C@H](Nc1ncnc2[nH]cnc12)c1nc2cccc(F)c2c(=O)n1-c1ccccc1 [Idelalisib] + Cc1nc(NC(=O)N2CCC[C@H]2C(N)=O)sc1-c1ccnc(C(C)(C)C(F)(F)F)c1 [Alpelisib] (partner 2 µM)
Summary of the method: as §1

Pemetrexed + Foretinib = compound: Nc1nc2[nH]cc(CCc3ccc(C(=O)N[C@@H](CCC(=O)O)C(=O)O)cc3)c2c(=O)[nH]1 [Pemetrexed] + COc1cc2c(Oc3ccc(NC(=O)C4(C(=O)Nc5ccc(F)cc5)CC4)cc3F)ccnc2cc1OCCCN1CCOCC1 [Foretinib] (partner 0.25 µM)
Summary of the method: as §1

Pemetrexed + Dasatinib = compound: Nc1nc2[nH]cc(CCc3ccc(C(=O)N[C@@H](CCC(=O)O)C(=O)O)cc3)c2c(=O)[nH]1 [Pemetrexed] + Cc1nc(Nc2ncc(C(=O)Nc3c(C)cccc3Cl)s2)cc(N2CCN(CCO)CC2)n1 [Dasatinib] (partner 0.075 µM)
Summary of the method: as §1

Row | Cell Line | relative viability (Idelalisib + Lapatinib; first compound 0.04 µM) | relative viability (Idelalisib + Lapatinib; first compound 0.1265 µM) | relative viability (Idelalisib + Lapatinib; first compound 1.265 µM) | relative viability (Idelalisib + Lapatinib; first compound 4 µM) | relative viability (Idelalisib + Alpelisib; first compound 0.04 µM) | relative viability (Idelalisib + Alpelisib; first compound 0.1265 µM) | relative viability (Idelalisib + Alpelisib; first compound 1.265 µM) | relative viability (Idelalisib + Alpelisib; first compound 4 µM) | relative viability (Pemetrexed + Foretinib; first compound 0.002 µM) | relative viability (Pemetrexed + Foretinib; first compound 0.006325 µM) | relative viability (Pemetrexed + Foretinib; first compound 0.02 µM) | relative viability (Pemetrexed + Foretinib; first compound 0.06325 µM) | relative viability (Pemetrexed + Foretinib; first compound 0.2 µM) | relative viability (Pemetrexed + Dasatinib; first compound 0.002 µM) | relative viability (Pemetrexed + Dasatinib; first compound 0.006325 µM) | relative viability (Pemetrexed + Dasatinib; first compound 0.02 µM) | relative viability (Pemetrexed + Dasatinib; first compound 0.06325 µM) | relative viability (Pemetrexed + Dasatinib; first compound 0.2 µM) | relative viability (Idelalisib + Lapatinib; first compound 0.4 µM) | relative viability (Idelalisib + Alpelisib; first compound 0.4 µM)
1 | HOP-62 | 1 | 0.912 | 1.47 | 1.06 | 1.19 | 1.09 | 0.853 | 1.06 | 0.892 | 1.02 | 1.2 | 1.09 | 1.07 | 0.522 | 0.636 | 0.659 | 0.674 | 0.629 |  | 
2 | LC-2-ad | 1.04 | 0.963 | 1.05 | 0.868 | 0.887 | 0.683 | 0.893 | 0.637 | 0.818 | 0.946 | 0.526 | 0.296 | 0.284 | 0.454 | 0.525 | 0.347 | 0.208 | 0.222 | 0.949 | 0.959
3 | LCLC-97TM1 | 0.913 | 1.28 | 1.08 | 0.602 | 0.274 | 0.211 | 0.284 | 0.168 | 1.01 | 0.81 | 0.886 | 0.872 | 0.886 | 0.743 | 0.892 | 0.967 | 0.797 | 0.588 |  | 
4 | LK-2 | 1.03 | 0.98 | 0.978 | 0.965 | 1.16 | 1.17 | 1.09 | 1.11 | 1.09 | 0.984 | 1.25 | 1.2 | 1.11 | 0.289 | 0.198 | 0.318 | 0.341 | 0.254 | 0.63 | 
5 | LOU-NH91 | 0.82 | 0.737 | 0.725 | 0.75 | 0.762 | 0.705 | 0.59 | 0.641 | 0.941 | 0.915 | 0.992 | 0.709 | 0.434 | 0.495 | 0.576 | 0.599 | 0.457 | 0.345 | 0.67 | 0.634
6 | LU99A | 0.923 | 0.912 | 1.14 | 1.04 | 0.665 | 0.479 | 0.554 | 0.45 | 0.776 | 0.775 | 0.811 | 0.793 | 0.768 | 0.504 | 0.441 | 0.459 | 0.516 | 0.542 | 0.862 | 0.36
7 | LXF-289 | 0.945 | 0.901 | 0.96 | 0.943 | 0.997 | 1.05 | 1.01 | 0.993 | 0.925 | 0.994 | 1.03 | 0.991 | 0.959 | 0.175 | 0.192 | 0.239 | 0.281 | 0.217 | 0.906 | 0.996
8 | NCI-H23 | 1.04 | 1.06 | 1.08 | 0.893 | 0.737 | 0.635 | 0.727 | 0.515 | 1.03 | 0.943 | 1.22 | 0.618 | 0.989 | 0.783 | 0.762 | 0.933 | 0.74 | 0.781 | 0.872 | 0.357
9 | NCI-H322M | 0.612 | 0.62 | 0.53 | 0.502 | 0.826 | 0.764 | 0.62 | 0.716 | 0.961 | 0.864 | 0.973 | 0.917 | 0.834 | 0.248 | 0.257 | 0.262 | 0.242 | 0.235 | 0.521 | 0.632
10 | NCI-H358 | 0.468 | 0.469 | 0.488 | 0.498 | 1.03 | 0.894 | 0.94 | 0.719 | 0.624 | 0.747 | 0.56 | 0.223 | 0.149 | 0.145 | 0.176 | 0.205 | 0.167 | 0.165 | 0.37 | 0.857
11 | NCI-H460 | 1.1 | 1.2 | 1.01 | 1.02 | 0.566 | 0.521 | 0.324 | 0.291 | 0.989 | 0.942 | 1.1 | 0.64 | 0.0776 | 0.357 | 0.536 | 0.524 | 0.406 | 0.101 | 0.932 | 0.426
12 | NCI-H520 | 0.776 | 0.999 | 0.923 | 0.684 | 0.862 | 0.878 | 0.769 | 0.349 | 0.787 | 0.749 | 0.848 | 0.693 | 0.738 | 0.235 | 0.224 | 0.208 | 0.203 | 0.235 | 0.717 | 0.64
13 | NCI-H596 | 1.04 | 1.13 | 1.16 | 0.934 | 0.597 | 0.397 | 0.467 | 0.364 | 0.765 | 0.83 | 0.938 | 0.786 | 0.581 | 0.634 | 0.642 | 0.464 | 0.427 | 0.414 | 0.895 | 0.483
14 | NCI-H647 | 1.13 | 1.27 | 0.95 | 0.546 | 1.27 | 1.17 | 1.12 | 0.68 | 0.946 | 1.07 | 1.33 | 0.989 | 0.386 | 0.151 | 0.16 | 0.175 | 0.156 | 0.127 | 0.834 | 0.845
15 | NCI-H650 | 1.17 | 1.07 | 0.924 | 0.877 | 1.27 | 1.01 | 1.46 | 0.962 | 1.07 | 0.97 | 1.08 | 0.988 | 1.02 | 0.408 | 0.469 | 0.431 | 0.444 | 0.481 | 0.944 | 0.961
16 | NCI-H661 | 0.44 | 0.433 | 0.367 | 0.391 | 0.708 | 0.642 | 0.718 | 0.813 | 1.03 | 0.987 | 1.01 | 0.985 | 0.974 | 0.882 | 0.84 | 0.958 | 0.945 | 0.827 | 0.39 | 0.637
